Assay results from patent US20120029187A1, “HALOALKYLSULFONANILIDE DERIVATIVE” (Nissan Chemical Industries, Ltd., priority 2009, published 2012).

How the values were obtained:
Format in all cases: in vivo
bulrush [1] = assay: Test Example 1: herbicidal effects in preemergence treatment under submerged conditions; details: dose 2.52 g/a
Summary of the method: (§1)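 Alluvial soil was flooded to 4 cm, sown with barnyardgrass, bulrush and ducksalad, and planted with 2.5-leaf rice seedlings. On the seeding day, water-diluted emulsifiable concentrates were applied to the water surface at set doses (g/a). After three weeks in a 25 to 30° C. greenhouse, mortality was scored 0–5.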

barnyardgrass [2] = assay: as above; details: dose 2.52 g/a
Summary of the method: as §1

ducksalad [3] = assay: as above; details: dose 2.52 g/a
Summary of the method: as §1

common ragweed [4] = assay: Test Example 4: herbicidal effect in foliage treatment; details: dose 6.3 g/a, three weeks after application
Summary of the method: (§2)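 A uniform foliar spray of emulsifiable concentrate, diluted with water to give the stated g/a dose, was applied to plants raised for 14 days from seed in sterilized diluvial soil at 25 to 30° C. Herbicidal effects were scored three weeks later.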

barnyardgrass [5] = assay: as above; details: dose 6.3 g/a, three weeks after application
Summary of the method: as §2

Italian ryegrass [6] = assay: as above; details: dose 6.3 g/a, three weeks after application
Summary of the method: as §2

posumbu knotweed [7] = assay: as above; details: dose 6.3 g/a, three weeks after application
Summary of the method: as §2

large crabgrass [8] = assay: as above; details: dose 6.3 g/a, three weeks after application
Summary of the method: as §2

velvetleaf [9] = assay: as above; details: dose 6.3 g/a, three weeks after application
Summary of the method: as §2

giant foxtail [10] = assay: as above; details: dose 6.3 g/a, three weeks after application
Summary of the method: as §2

beadstraw = assay: as above; details: dose 6.3 g/a, three weeks after application
Summary of the method: as §2

redroot pigweed [11] = assay: as above; details: dose 6.3 g/a, three weeks after application
Summary of the method: as §2

wild oat [12] = assay: as above; details: dose 6.3 g/a, three weeks after application
Summary of the method: as §2

common chickweed [13] = assay: as above; details: dose 6.3 g/a, three weeks after application
Summary of the method: as §2

water foxtail [14] = assay: as above; details: dose 6.3 g/a, three weeks after application
Summary of the method: as §2

common lambsquater [15] = assay: as above; details: dose 6.3 g/a, three weeks after application
Summary of the method: as §2

common ragweed [16] = assay: Test Example 3: herbicidal effects in soil treatment; details: dose 6.3 g/a
Summary of the method: (§3)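 Seeds were sown in sterilized diluvial soil and covered with about 1.5 cm of soil. Compounds, formulated as emulsifiable concentrates and diluted with water, were sprayed evenly over the soil surface at set doses in g/a. Herbicidal effect was scored on a rating scale three weeks later.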

barnyardgrass [17] = assay: as above; details: dose 6.3 g/a
Summary of the method: as §3

Italian ryegrass [18] = assay: as above; details: dose 6.3 g/a
Summary of the method: as §3

posumbu knotweed [19] = assay: as above; details: dose 6.3 g/a
Summary of the method: as §3

large crabgrass [20] = assay: as above; details: dose 6.3 g/a
Summary of the method: as §3

velvetleaf [21] = assay: as above; details: dose 6.3 g/a
Summary of the method: as §3

giant foxtail [22] = assay: as above; details: dose 6.3 g/a
Summary of the method: as §3

redroot pigweed [23] = assay: as above; details: dose 6.3 g/a
Summary of the method: as §3

wild oat [24] = assay: as above; details: dose 6.3 g/a
Summary of the method: as §3

common chickweed [25] = assay: as above; details: dose 6.3 g/a
Summary of the method: as §3

water foxtail [26] = assay: as above; details: dose 6.3 g/a
Summary of the method: as §3

common lambsquater [27] = assay: as above; details: dose 6.3 g/a
Summary of the method: as §3

bulrush [28] = assay: Test Example 2: herbicidal effects during the vegetation period under submerged conditions; details: treatment during the vegetation period under submerged conditions; dose 2.52 g/a
Summary of the method: (§4)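 Barnyardgrass, bulrush and ducksalad were co-sown in alluvial soil flooded to 4 cm and grown in a greenhouse at 25 to 30° C. At the 1- or 2-leaf stage, water-diluted emulsifiable concentrates went onto the water surface at set doses (g/a). Herbicidal effect was scored three weeks later on a graded scale.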

barnyardgrass [29] = assay: as above; details: treatment during the vegetation period under submerged conditions; dose 2.52 g/a
Summary of the method: as §4

ducksalad [30] = assay: as above; details: treatment during the vegetation period under submerged conditions; dose 2.52 g/a
Summary of the method: as §4

Compound	B: bulrush, herbicidal effect (evaluation scale 0-5) (bulrush [1])	A: barnyardgrass, herbicidal effect (evaluation scale 0-5) (barnyardgrass [2])	C: ducksalad, herbicidal effect (evaluation scale 0-5) (ducksalad [3])	J: common ragweed, herbicidal effect (common ragweed [4])	A: barnyardgrass, herbicidal effect (barnyardgrass [5])	H: Italian ryegrass, herbicidal effect (Italian ryegrass [6])	M: posumbu knotweed, herbicidal effect (posumbu knotweed [7])	D: large crabgrass, herbicidal effect (large crabgrass [8])	I: velvetleaf, herbicidal effect (velvetleaf [9])	E: giant foxtail, herbicidal effect (giant foxtail [10])	O: beadstraw, herbicidal effect (beadstraw)	K: redroot pigweed, herbicidal effect (redroot pigweed [11])	F: wild oat, herbicidal effect (wild oat [12])	N: common chickweed, herbicidal effect (common chickweed [13])	G: water foxtail, herbicidal effect (water foxtail [14])	L: common lambsquater, herbicidal effect (common lambsquater [15])	J: common ragweed, herbicidal effect (evaluation scale 0-5) (common ragweed [16])	A: barnyardgrass, herbicidal effect (evaluation scale 0-5) (barnyardgrass [17])	H: Italian ryegrass, herbicidal effect (evaluation scale 0-5) (Italian ryegrass [18])	M: posumbu knotweed, herbicidal effect (evaluation scale 0-5) (posumbu knotweed [19])	also measured
O=C1COCCN1Cc1ccccc1NS(=O)(=O)C(F)(F)F [Compound I-1, 4-(2-trifluoromethanesulfonylaminobenzyl)-1,4-oxazinan-3-one]	5 (mortality of 90% or above (nearly complete death))	5 (mortality of 90% or above (nearly complete death))	5 (mortality of 90% or above (nearly complete death))	4 (mortality of at least 70% and less than 90%)	5 (mortality of 90% or above (nearly complete death))	5 (mortality of 90% or above (nearly complete death))	5 (mortality of 90% or above (nearly complete death))	5 (mortality of 90% or above (nearly complete death))	5 (mortality of 90% or above (nearly complete death))	5 (mortality of 90% or above (nearly complete death))	5 (mortality of 90% or above (nearly complete death))	3 (mortality of at least 40% and less than 70%)	3 (mortality of at least 40% and less than 70%)	4 (mortality of at least 70% and less than 90%)	5 (mortality of 90% or above (nearly complete death))	5 (mortality of 90% or above (nearly complete death))	4 (mortality of at least 70% and less than 90%)	5 (mortality of 90% or above (nearly complete death))	5 (mortality of 90% or above (nearly complete death))	5 (mortality of 90% or above (nearly complete death))	D: large crabgrass, herbicidal effect (evaluation scale 0-5) (large crabgrass [20]): 5 (mortality of 90% or above (nearly complete death)); I: velvetleaf, herbicidal effect (evaluation scale 0-5) (velvetleaf [21]): 5 (mortality of 90% or above (nearly complete death)); E: giant foxtail, herbicidal effect (evaluation scale 0-5) (giant foxtail [22]): 5 (mortality of 90% or above (nearly complete death)); K: redroot pigweed, herbicidal effect (evaluation scale 0-5) (redroot pigweed [23]): 5 (mortality of 90% or above (nearly complete death)); F: wild oat, herbicidal effect (evaluation scale 0-5) (wild oat [24]): 4 (mortality of at least 70% and less than 90%); N: common chickweed, herbicidal effect (evaluation scale 0-5) (common chickweed [25]): 5 (mortality of 90% or above (nearly complete death)); G: water foxtail, herbicidal effect (evaluation scale 0-5) (water foxtail [26]): 5 (mortality of 90% or above (nearly complete death)); L: common lambsquater, herbicidal effect (evaluation scale 0-5) (common lambsquater [27]): 5 (mortality of 90% or above (nearly complete death)); B: bulrush, herbicidal effect (evaluation scale 0-5) (bulrush [28]): 5 (mortality of 90% or above (nearly complete death)); A: barnyardgrass, herbicidal effect (evaluation scale 0-5) (barnyardgrass [29]): 5 (mortality of 90% or above (nearly complete death)); C: ducksalad, herbicidal effect (evaluation scale 0-5) (ducksalad [30]): 5 (mortality of 90% or above (nearly complete death))
O=C1CSCCN1Cc1ccccc1NS(=O)(=O)C(F)(F)F [Compound I-17, 4-(2-trifluoromethanesulfonylaminobenzyl)-1,4-thiazinan-3-one]	5 (mortality of 90% or above (nearly complete death))	4 (mortality of at least 70% and less than 90%)	5 (mortality of 90% or above (nearly complete death))	4 (mortality of at least 70% and less than 90%)	4 (mortality of at least 70% and less than 90%)	3 (mortality of at least 40% and less than 70%)	3 (mortality of at least 40% and less than 70%)	5 (mortality of 90% or above (nearly complete death))	4 (mortality of at least 70% and less than 90%)	3 (mortality of at least 40% and less than 70%)	5 (mortality of 90% or above (nearly complete death))	4 (mortality of at least 70% and less than 90%)	1 (mortality of at least 5% and less than 20%)	4 (mortality of at least 70% and less than 90%)	5 (mortality of 90% or above (nearly complete death))	5 (mortality of 90% or above (nearly complete death))	4 (mortality of at least 70% and less than 90%)	5 (mortality of 90% or above (nearly complete death))	3 (mortality of at least 40% and less than 70%)	2 (mortality of at least 20% and less than 40%)	D: large crabgrass, herbicidal effect (evaluation scale 0-5) (large crabgrass [20]): 5 (mortality of 90% or above (nearly complete death)); I: velvetleaf, herbicidal effect (evaluation scale 0-5) (velvetleaf [21]): 1 (mortality of at least 5% and less than 20%); E: giant foxtail, herbicidal effect (evaluation scale 0-5) (giant foxtail [22]): 3 (mortality of at least 40% and less than 70%); K: redroot pigweed, herbicidal effect (evaluation scale 0-5) (redroot pigweed [23]): 3 (mortality of at least 40% and less than 70%); F: wild oat, herbicidal effect (evaluation scale 0-5) (wild oat [24]): 0 (mortality of less than 5% (almost ineffective)); N: common chickweed, herbicidal effect (evaluation scale 0-5) (common chickweed [25]): 5 (mortality of 90% or above (nearly complete death)); G: water foxtail, herbicidal effect (evaluation scale 0-5) (water foxtail [26]): 5 (mortality of 90% or above (nearly complete death)); L: common lambsquater, herbicidal effect (evaluation scale 0-5) (common lambsquater [27]): 5 (mortality of 90% or above (nearly complete death)); B: bulrush, herbicidal effect (evaluation scale 0-5) (bulrush [28]): 5 (mortality of 90% or above (nearly complete death)); C: ducksalad, herbicidal effect (evaluation scale 0-5) (ducksalad [30]): 4 (mortality of at least 70% and less than 90%)
